Reference: patent publication US11161823B2, “Anticancer 1,3-dioxane-4,6-dione derivatives and method of combinatorial synthesis thereof” (National Guard Health Affairs, priority 2019, dated 2021)

Assays:
[1] = test system: HCT116 (Colon); assay: MTT cell proliferation assay, HCT116; format: cell-based, human; conditions: Homo sapiens, HCT-116; MTT, 48 h treatment, medium with 10% FBS; read-out: IC50 μM HCT116 (Colon)
Experimental: (§1) Cell Culture: The human breast cancer epithelial cell lines MDA-MB-231 (HTB-26™), MCF-7 (HTB-22™), colon cancer cell lines HCT 116 (CCL-247™) and […] (CCL-244™) were obtained from American Type Culture Collection (ATCC). Additionally, KAIMRC1 cell line was isolated and developed at KAIMRC from a breast cancer patient. All the cells were grown in advanced DMEM containing 10% fetal bovine serum (FBS), 50 units/mL penicillin, 50 ug/mL streptomycin (GIBCO), and 2 mM glutamine (GIBCO). The cells were cultured at 37° C. in a humidified 5% CO2 atmosphere for 24 hours before experimental procedure.
(§2) Cell Proliferation Assay (MTT): Cells were plated on flat-bottom 96-well plates at a density of 5×10^3 cells/well in 100 μL growth medium. Serial dilutions of the compounds, ranging from 100 nM-100 μM were tested on the cells in triplicates. Additional rows with only the compounds and only cells were added in order to account for the compounds and cells effect. Cells were incubated with compounds for 48 h at 37° C. with 5% CO2.
(§3) After 48 h treatment, the cell viability was determined using the MTT viability assay. Briefly, 5 μL of MTT reagent (5 mg/mL stock) per 95 μl cell culture medium was added to each well and incubated for 3 h at 37° C. with 5% CO2. After 3 h the supernatant was removed, and the MTT formazan crystals were dissolved in dimethyl sulfoxide (DMSO) by shaking the plate for 30 mins at RT. The absorbance was measured on Molecular Devices microplate absorbance reader at 560 nm. The percentage of viable cells was calculated as the ratio of the absorbance of the treated group divided by the absorbance of the control group multiplied by 100. The absorbance from the untreated control cells was set as 100% viable. IC50 values were calculated from dose-response curves generated using a polynomial dose-response approximation using Prism 8 software. The IC50 values (µM) obtained for the compounds of present invention on MDA-MD 231 (breast), MCF-7 (breast), KAIMRC1 (breast), HCT116 (colon) and HCT8 (colon) are summarized in Table 5 and 6.

[2] = test system: MCF-7 (Breast); assay: MTT cell proliferation assay, MCF-7; format: cell-based, human; conditions: Homo sapiens, MCF7; MTT, 48 h treatment, medium with 10% FBS; read-out: IC50 μM MCF-7 (Breast)
Experimental: as §1, §2, §3

[3] = test system: HL 60 (leukemia); assay: Cell Titre Glo luminescent cell viability assay, HL 60; format: cell-based; conditions: Homo sapiens, HL-60; Cell Titre Glo luminescence, normalized to DMSO controls
Description: (§4) Another embodiment discloses Titer Glo Assay for the characterization of the synthesized compounds. The CellTiter-Glo® Luminescent Cell Viability Assay is a homogeneous method of determining the number of viable cells in culture based on quantitation of the ATP present, an indicator of metabolically active cells. The CellTiter-Glo® Assay is designed for use with multiwell formats, making it ideal for automated high-throughput screening (HTS), cell proliferation, and cytotoxicity assays. The homogeneous assay procedure involves adding the single reagent (CellTiter-Glo® Reagent) directly to cells cultured in serum-supplemented medium. Cell washing, removal of medium, and multiple pipetting steps are not required. The system detects as few as 15 cells/well in a 384-well format in 10 minutes after adding reagent and mixing.
as §1
(§5) Cell Titre Glo assay was performed on two Leukemia cell lines, HL 60 and ThP1 as per manufacturer's (Promega) recommendations. Briefly, plates were prepared as mentioned in cell culture section. 100 µL of Cell Titre Glo was added directly to the wells. After incubation for 30 minutes at room temperature, luminescence was measured using the Envision plate reader (Perkin Elmer). Luminescence readings were normalized to averaged DMSO controls and expressed as relative percentage. IC50 values were calculated from dose-response curves generated using a polynomial dose-response approximation using Prism 8 software.

[4] = test system: HCT 8 (Colon); assay: MTT cell proliferation assay, HCT 8; format: cell-based, human; conditions: Homo sapiens, HCT-8; MTT, 48 h treatment, medium with 10% FBS; read-out: IC50 μM HCT 8 (Colon)
Experimental: as §1, §2, §3

[5] = test system: ThP1 (leukemia); assay: Cell Titre Glo luminescent cell viability assay, ThP1; format: cell-based; conditions: Homo sapiens, THP-1; Cell Titre Glo luminescence, normalized to DMSO controls
Description: as §4, §1, §5

[6] = test system: MDA MB-231 cell line (Breast); assay: MTT cell proliferation assay, MDA MB-231; format: cell-based, human; conditions: Homo sapiens, MDA-MB-231; MTT, 48 h treatment, medium with 10% FBS; read-out: IC50 μM MDA MB-231 (Breast)
Experimental: as §1, §2, §3

[7] = test system: KAIMRC1 (Breast); assay: MTT cell proliferation assay, KAIMRC1; format: cell-based, human; conditions: Homo sapiens; MTT, 48 h treatment, medium with 10% FBS; read-out: IC50 μM KAIMRC1 (Breast)
Description: The immortalized cell lines included in the testing panel of this disclosure are MCF7 (a breast cancer cell line), MCF10 (immortalized human breast epithelial cells), MDA-MB231 (an epithelial, human breast cancer cell line that was established from a pleural effusion of a patient with a metastatic mammary adenocarcinoma), KAIMRC1 (a naturally immortalized human breast carcinoma cell line), KAIMRC2 (a naturally immortalized breast cancer cell line). The primary cells available for lead toxicity assays are, without limitation: hepatocytes (supplied by Xenotech, Bioscience Lonza, Accegen, Biocompare, Gibco, Zen-Bio, Takarabio, AxolBio, Creative Bioarray), cardiomyocytes (supplied by Cellartis, Axolbio, Cedarlanelabs, EMD Millipore, Takara Bio, Neuromics, AcceGene), primary neurons (AcceGen, Cellapplications, Neuromics, Biocompare, AxolBio, BrainXcell), endothelial lining (Thermofisher, Accegen, Biocompare, Promocell, ATCC). Multicellular 3D organoids raised by differentiating iPSC (induced pluripotent stem cells) are provided by Sigma Aldrich (the iPSC cell lines, organoids), Tocris Bioscience, Thermofisher, Stemcell Technologies, Takara Bio, Emulatebio (Human organ chips), Prodolabs.
as §1, §2, §3

[8] = test system: MDA-MD 231 (breast), MCF-7 (breast), KAIMRC1 (breast), HCT116 (colon) and HCT8 (colon); assay: MTT assay, review of Tables 5 and 6 (whole cell line panel); format: cell-based, human; conditions: review of Tables 5 and 6, MTT IC50
Experimental: as §1, §2, §3
The presence of nitrogen in certain positions of quinoline and/or iso-quinoline ring is the structure-activity determinant, and the subsequent variations in the nitrogen positions and substituents in this ring produce stronger leads by the methods of combinatorial expansion disclosed herein.

Row | IC50 [1] | IC50 [2] | IC50 [4] | SMILES | IC50 [3] | IC50 [5] | IC50 [6] | IC50 [7] | range of activity compared with Mitoxanthrone [8]
1 | 2.47 µM | 9.29 µM | 1.87 µM | CCC1(C)OC(=O)C(=CC=Cc2cncc3ccccc23)C(=O)O1 (stereo not shown) [Example 12, 2-ETHYL-5-(3-ISOQUINOLIN-4-YL-ALLYLIDENE)-2-METHYL-[1,3]DIOXANE-4,6-DIONE] | 2.05 µM | 1.82 µM | 6.05 µM | 4.25 µM | range of activity that begins to overlap with that of Mitoxanthrone
2 | 6.38 µM | 9.15 µM | 19.8 µM | CCC1(C)OC(=O)C(=CC=Cc2ccnc3ccccc23)C(=O)O1 (stereo not shown) [Example 13, 2-ETHYL-2-METHYL-5-(3-QUINOLIN-4-YL-ALLYLIDENE)-[1,3]DIOXANE-4,6-DIONE] | 1.04 µM | 0.88 µM | 11 µM | 14.4 µM | range of activity that begins to overlap with that of Mitoxanthrone
